Assay results published in the NIST ThermoML archive (doi:10.1021/je500513b).
Numbers after ± are expanded uncertainties.

Test: mn = molality of the nth substance listed, in mol/kg
Conditions: for surface tension liquid-gas: Pendant drop shape; for electrical conductivity: 100 kPa, Liquid, Mettler Toledo inLab 710

CCCCCCCCCCCCCC[N+](C)(C)CCCC[N+](C)(C)CCCCCCCCCCCCCC.[Br-].[Br-] + O
Conditions	electrical conductivity, 298.15 K [S/m]	electrical conductivity, 303.15 K [S/m]	electrical conductivity, 308.15 K [S/m]	electrical conductivity, 313.15 K [S/m]	electrical conductivity, 318.15 K [S/m]	electrical conductivity, 323.15 K [S/m]	surface tension liquid-gas, 298.15 K [mN/m]
m1 = 1e-05	–	–	–	–	–	–	58.66 ± 6.8
m1 = 2e-05	–	–	–	–	–	–	56.16 ± 11
m1 = 3e-05	–	–	–	–	–	–	51.87 ± 4.7
m1 = 4e-05	–	–	–	–	–	–	50.69 ± 4.2
m1 = 5e-05	–	–	–	–	–	–	49.28 ± 3.2
m1 = 6e-05	–	–	–	–	–	–	47.86 ± 3.4
m1 = 7e-05	–	–	–	–	–	–	45.48 ± 3.1
m1 = 8e-05	–	–	–	–	–	–	44.02 ± 2.9
m1 = 9e-05	–	–	–	–	–	–	43.09 ± 2.4
m1 = 0.0001	–	–	–	–	–	–	42.13 ± 2.2
m1 = 0.000111	0.00256 ± 0.0004	–	0.00315 ± 0.00053	0.00337 ± 0.00058	–	0.00418 ± 0.00066	–
m1 = 0.000118	0.0027 ± 0.00041	0.00296 ± 0.00044	0.00332 ± 0.0005	0.00354 ± 0.00056	0.00387 ± 0.00057	0.00442 ± 0.00058	–
m1 = 0.00012	–	–	–	–	–	–	39.63 ± 1.6
m1 = 0.000125	0.00286 ± 0.00038	0.00313 ± 0.0004	0.00351 ± 0.00045	0.00375 ± 0.00057	0.00411 ± 0.00057	0.00465 ± 0.00059	–
m1 = 0.000133	0.003 ± 0.00038	0.00333 ± 0.00034	0.00371 ± 0.00046	0.00401 ± 0.00056	0.00436 ± 0.00046	0.0049 ± 0.00062	–
m1 = 0.00014	–	–	–	–	–	–	39.01 ± 0.48
m1 = 0.000143	0.00321 ± 0.00034	0.00354 ± 0.0004	0.00392 ± 0.00045	0.00426 ± 0.00056	0.00463 ± 0.00058	0.00514 ± 0.0006	–
m1 = 0.00015	0.00333 ± 0.00031	0.00365 ± 0.00037	0.00407 ± 0.00042	0.00448 ± 0.00054	0.00486 ± 0.00056	0.00538 ± 0.00061	–
m1 = 0.000158	0.00344 ± 0.00027	0.00377 ± 0.00032	0.00423 ± 0.00038	0.00468 ± 0.0005	0.005 ± 0.00053	0.00563 ± 0.0006	–
m1 = 0.000167	0.00354 ± 0.00023	0.00391 ± 0.00031	0.00442 ± 0.00038	0.00491 ± 0.00049	0.00524 ± 0.00055	0.00588 ± 0.00062	–
m1 = 0.00017	–	–	–	–	–	–	38.87 ± 0.45
m1 = 0.000176	0.00364 ± 0.00021	0.00405 ± 0.00027	0.00458 ± 0.00035	0.00514 ± 0.00047	0.00548 ± 0.00047	0.0062 ± 0.00062	–
m1 = 0.000188	0.00373 ± 0.00018	0.00418 ± 0.00023	0.00475 ± 0.00029	0.0054 ± 0.00037	0.00576 ± 0.00046	0.00653 ± 0.00062	–
m1 = 0.000197	0.00382 ± 0.00017	0.00427 ± 0.0002	0.00487 ± 0.00027	0.00557 ± 0.00036	0.00593 ± 0.0004	0.00682 ± 0.0006	–
m1 = 0.0002	–	–	–	–	–	–	38.31 ± 0.45
m1 = 0.000207	0.0039 ± 0.00017	0.00436 ± 0.0002	0.005 ± 0.00027	0.00574 ± 0.00034	0.00612 ± 0.00041	0.00712 ± 0.00056	–
m1 = 0.000218	0.00399 ± 0.00016	0.00447 ± 0.00018	0.00514 ± 0.00025	0.00588 ± 0.00029	0.00632 ± 0.00035	0.00745 ± 0.00049	–
m1 = 0.000231	0.00409 ± 0.00015	0.00457 ± 0.00019	0.00529 ± 0.00023	0.00606 ± 0.00024	0.00655 ± 0.00035	0.00772 ± 0.00042	–
m1 = 0.00024	0.00416 ± 0.00015	0.00465 ± 0.00017	0.00539 ± 0.00022	0.00617 ± 0.00025	0.00667 ± 0.0003	0.00786 ± 0.00037	–
m1 = 0.00025	0.00422 ± 0.00015	0.00473 ± 0.00017	0.00549 ± 0.00022	0.00628 ± 0.00024	0.0068 ± 0.0003	0.00805 ± 0.00035	–
m1 = 0.000261	0.0043 ± 0.00015	0.00482 ± 0.00015	0.0056 ± 0.0002	0.00641 ± 0.00023	0.00694 ± 0.00025	0.00823 ± 0.00032	–
m1 = 0.000273	0.00438 ± 0.00015	0.00489 ± 0.00016	0.00572 ± 0.0002	0.00652 ± 0.00022	0.00708 ± 0.00024	0.00839 ± 0.0003	–
m1 = 0.000286	0.00448 ± 0.00015	0.00499 ± 0.00023	0.00584 ± 0.0002	0.00667 ± 0.00015	0.00724 ± 0.00045	0.00858 ± 0.00029	–
m1 = 0.0003	0.00459 ± 0.00016	0.00512 ± 0.00025	0.00597 ± 0.00019	0.00681 ± 0.00017	0.0074 ± 0.00044	0.00877 ± 0.00029	37.21 ± 0.43
